Where two headings read alike, the source gives them in different places.
Legend:
[1] = test system: PC-9-OR cells; test: Cell proliferation assay (CCK8/SRB); details: PC9-OR, 72 h, read-out: IC50, antiproliferation activity
[2] = test system: BaF3-EGFR^19del/T790M/C797S cells; test: Cell proliferation assay (CCK8/SRB); details: 72 h, read-out: IC50, antiproliferation activity
[3] = test system: NCI-H1975 cells; test: Cell proliferation assay (CCK8/SRB); details: Homo sapiens, NCI-H1975, 72 h, read-out: IC50, antiproliferation activity
[4] = test system: EGFR phosphorylation in triple mutant BaF3 cells and PC-9-OR cells; test: Western blot of EGFR phosphorylation in EGFR^C797S triple mutant cells; type: cell-based; details: treated 2 h
[5] = test system: BaF3-EGFR^L858R/T790M cells; test: Cell proliferation assay (CCK8/SRB); details: Ba/F3 EGFR-L858R, 72 h, read-out: IC50, antiproliferation activity
[6] = test system: BaF3-EGFR^L858R/T790M/C797S cells; test: Cell proliferation assay (CCK8/SRB); details: Ba/F3 EGFR-L858R, 72 h, read-out: IC50, antiproliferation activity
[7] = test system: BaF3-EGFR^19del/T790M cells; test: Cell proliferation assay (CCK8/SRB); details: 72 h, read-out: IC50, antiproliferation activity
[8] = test system: BaF3 parental cells; test: Cell proliferation assay (CCK8/SRB); details: Mus musculus, BaF3, 72 h, read-out: IC50, antiproliferation activity
[9] = test system: BaF3-EGFR^19del/T790M/C797S mouse xenograft tumors; type: in vivo; details: for phosphorylation of EGFR and Erk in tumors (Western blot): tumor tissues collected 2 h after last treatment
Experimental: Western blotting was performed as described previously. Cells were collected by trypsin and then lysed with SDS lysis buffer. Tumor tissues were homogenized in RIPA buffer on ice, followed by centrifugation at 12,000 x g for 30 min.
Mice were sacrificed and tumors were harvested for Western blot analysis. All animal study was approved by the Institutional Animal Care and Use Committee of the Shanghai Institute of Materia Medica and strictly performed according to the institutional ethical guidelines on animal care.

[10] = test system: MRC-9 cells; test: Cell proliferation assay (CCK8/SRB); details: Homo sapiens, MRC9, 72 h, read-out: IC50, antiproliferative activity
[11] = molecular target: EGFR^19del/T790M (Homo sapiens, UniProt P00533, DEL746-750/T790M); test: In vitro kinase assay (ELISA); type: biochemical; details: mean ± SD of three independent experiments, read-out: IC50, kinase inhibitory activity against EGFR^19del/T790M
[12] = test system: EGFR phosphorylation in BaF3-EGFR^L858R/T790M, BaF3-EGFR^19del/T790M and NCI-H1975 cells; test: Western blot of EGFR phosphorylation in EGFR^T790M double mutant cells; type: cell-based; details: treated 2 h
Experimental: (§1) Western blotting was performed as described previously. Cells were collected by trypsin and then lysed with SDS lysis buffer. Tumor tissues were homogenized in RIPA buffer on ice, followed by centrifugation at 12,000 x g for 30 min. The concentration of protein was measured with BCA protein assay kit (cat. no. 23227, Thermo Fisher Scientific). After heating at 100 °C for 15 min, protein samples were separated on 8-12% SDS-PAGE gels, and then transferred to nitrocellulose membranes (Life Technologies). Membranes were blocked in 5% nonfat milk-TBST and immunoblotted with primary antibodies against phospho-EGFR (Tyr1068; dilution, 1:500; cat. no. 2234L, CST), EGFR (dilution, 1:1000; cat. no. 4267S, CST), PARP (dilution, 1:1000; cat. no. 9542S, CST), caspase-3 (dilution, 1:1000; cat. no. 9662S, CST), cleaved caspase-3 (dilution, 1:1000; cat. no. 9664S, CST), phospho-Erk (Thr202/Tyr204; dilution, 1:1000; cat. no. 4370S, CST), Erk (dilution, 1:1000; cat. no. 4695S, CST) and β-actin (dilution, 1:20000; cat. no. 60008-1-Ig, Proteintech) at 4 °C overnight and then incubated with secondary antibodies (cat. no. 111-035-003, Jackson).

[13] = molecular target: EGFR^L858R/T790M (Homo sapiens, UniProt P00533, L858R/T790M); test: In vitro kinase assay (ELISA); type: biochemical; details: mean ± SD of three independent experiments, read-out: IC50, kinase inhibitory activity against EGFR^L858R/T790M
[14] = molecular target: EGFR^19del/T790M/C797S (Homo sapiens, UniProt P00533, C797S/DEL746-750/T790M); test: In vitro kinase assay (ELISA); type: biochemical; details: mean ± SD of three independent experiments, read-out: IC50, kinase inhibitory activity against EGFR^19del/T790M/C797S
[15] = test system: GSE-1 cells; test: Cell proliferation assay (CCK8/SRB); details: Homo sapiens, 72 h, read-out: IC50, antiproliferative activity
[16] = test system: BaF3-EGFR^L858R/T790M/C797S cells; test: Cell apoptosis analysis (Annexin V-FITC, flow cytometry); type: cell-based; details: 48 h
Experimental: (§2) Then cells were collected and washed with PBS and measured by Annexin V-FITC Apoptosis detection kit (cat. no. A211-02, Vazyme Biotechnology). Signals were measured using FACS Calibur flow cytometer, and FlowJo software was used to analyze the data.

[17] = molecular target: EGFR^L858R/T790M/C797S (Homo sapiens, UniProt P00533, C797S/L858R/T790M); test: In vitro kinase assay (ELISA); type: biochemical; details: mean ± SD of three independent experiments, read-out: IC50, kinase inhibitory activity against EGFR^L858R/T790M/C797S
[18] = test system: cleaved caspase-3 and cleaved PARP in triple mutant BaF3 and PC-9-OR cells; test: Western blot of apoptosis-related proteins; type: cell-based
Experimental: as §1

[19] = molecular target: EGFR^WT (Homo sapiens, UniProt P00533); test: In vitro kinase assay (ELISA)
[20] = test system: EGFR^WT; test: In vitro kinase assay (ELISA); details: EGFR^C797S triple mutants versus EGFR^WT, kinase IC50
[21] = test system: BaF3-EGFR^19del/T790M/C797S cells; test: Cell apoptosis analysis (Annexin V-FITC, flow cytometry); type: cell-based; details: 3 μM, 48 h
Experimental: as §2

[22] = test system: PC-9-OR cells; test: as above; type: cell-based; details: 3 μM, 48 h
Experimental: as §2

[23] = triple mutant BaF3 cells and PC-9-OR cells

EGFR^L858R/T790M/C797S, sequence (P00533 712-979 T790M/C797S/L858R limits assumed): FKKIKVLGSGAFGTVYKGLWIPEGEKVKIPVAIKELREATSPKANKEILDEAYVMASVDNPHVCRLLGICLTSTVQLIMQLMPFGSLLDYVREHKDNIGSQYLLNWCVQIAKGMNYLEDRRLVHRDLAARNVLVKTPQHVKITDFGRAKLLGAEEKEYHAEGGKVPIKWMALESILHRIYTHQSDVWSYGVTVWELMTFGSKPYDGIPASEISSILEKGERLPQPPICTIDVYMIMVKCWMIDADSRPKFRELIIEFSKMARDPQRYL
EGFR^L858R/T790M, sequence (P00533 712-979 T790M/L858R limits assumed): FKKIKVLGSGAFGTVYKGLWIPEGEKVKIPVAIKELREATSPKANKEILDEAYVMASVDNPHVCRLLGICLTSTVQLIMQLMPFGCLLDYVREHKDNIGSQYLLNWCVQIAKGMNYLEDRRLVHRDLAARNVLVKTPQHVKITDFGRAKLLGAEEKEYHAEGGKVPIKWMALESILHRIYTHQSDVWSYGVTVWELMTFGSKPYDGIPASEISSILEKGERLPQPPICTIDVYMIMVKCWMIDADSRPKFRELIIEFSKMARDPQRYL
EGFR^19del/T790M/C797S, sequence (P00533 with tags, fused parts or gaps DEL746-750/T790M/C797S limits assumed): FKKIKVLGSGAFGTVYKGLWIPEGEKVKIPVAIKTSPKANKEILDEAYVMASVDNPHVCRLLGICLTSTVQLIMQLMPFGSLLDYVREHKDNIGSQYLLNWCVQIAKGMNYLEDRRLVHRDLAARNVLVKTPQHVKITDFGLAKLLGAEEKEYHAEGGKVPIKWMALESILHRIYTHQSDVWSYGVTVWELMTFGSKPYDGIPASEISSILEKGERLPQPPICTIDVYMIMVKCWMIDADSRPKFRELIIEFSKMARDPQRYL
EGFR^19del/T790M, sequence (P00533 with tags, fused parts or gaps DEL746-750/T790M limits assumed): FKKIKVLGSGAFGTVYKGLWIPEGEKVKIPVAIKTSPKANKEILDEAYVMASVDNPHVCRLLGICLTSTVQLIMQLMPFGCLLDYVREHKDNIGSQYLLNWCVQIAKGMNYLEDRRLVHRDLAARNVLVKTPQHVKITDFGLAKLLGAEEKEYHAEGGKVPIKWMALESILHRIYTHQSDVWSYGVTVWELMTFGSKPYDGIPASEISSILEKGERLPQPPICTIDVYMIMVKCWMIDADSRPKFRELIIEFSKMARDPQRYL
EGFR^WT (Homo sapiens, UniProt P00533), sequence (P00533 712-979 limits assumed): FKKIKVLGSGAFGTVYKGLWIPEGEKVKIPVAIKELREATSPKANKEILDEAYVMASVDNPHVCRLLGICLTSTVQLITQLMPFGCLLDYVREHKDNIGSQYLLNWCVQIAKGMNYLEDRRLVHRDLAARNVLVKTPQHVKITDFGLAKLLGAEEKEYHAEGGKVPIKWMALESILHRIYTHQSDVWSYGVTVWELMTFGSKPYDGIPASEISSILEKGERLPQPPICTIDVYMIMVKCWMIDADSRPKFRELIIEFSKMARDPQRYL

SMILES	IC50 [1] [nM]	IC50 [2] [nM]	IC50 [3] [nM]	IC50 [5] [nM]	IC50 [6] [nM]	IC50 [7] [nM]	IC50 [8] [nM]	phosphorylation of EGFR and Erk in tumors (Western blot) [9]	EGFR phosphorylation (Western blot) [4, 23]	apoptosis rate ([16]; 3 μM)	other results
C=CC(=O)Nc1cc(Nc2nccc(-c3cn(C)c4ccccc34)n2)c(OC)cc1N(C)CCN(C)C [AZD9291, Osimertinib, reference compound]	6300	5930 ± 780	[…]	[…]	5500 ± 330	[…]	3520 ± 920	no obvious inhibitory activities of EGFR and Erk			EGFR phosphorylation (Western blot) ([4]; 1 μM, all three EGFR^C797S triple mutant cells): failed to suppress; reduction of tumor growth compared to vehicle ([9]; 25 mg/kg, oral, once a day, BALB/c nude mice): did not show significant reduction of tumor growth
CCS(=O)(=O)n1cc(-c2nc(Nc3ccc(N4CCC(N5CCN(C)CC5)CC4)c(OC(C)C)c3)ncc2Cl)c2ccccc21 [HCD3514]	480	250	490	660	350	520	1310	decreased phosphorylation of EGFR and the downstream signaling phosphorylation of Erk level	potently and dose-dependently suppressed	98.27%	IC50 [10]: 1030 nM; IC50 [11]: 8.9 nM; EGFR phosphorylation (Western blot) ([12]; BaF3-EGFR^L858R/T790M and BaF3-EGFR^19del/T790M cells): dose-dependently suppressed; expression of phospho-EGFR (Western blot) ([12]; NCI-H1975 cells): down-regulated; IC50 [13]: 4.9 nM; IC50 [14]: 2 nM; IC50 [15]: 1040 nM; apoptosis rate ([16]; 1 μM): 72.39%; IC50 [17]: 1 nM; expression of cleaved caspase-3 and cleaved PARP (Western blot) [18]: dose-dependently up-regulated; IC50 [19]: 156 ± 6.9 nM; selectivity over EGFR^WT [20]: more than 78 fold; tumor growth inhibition (TGI) ([9]; 50 mg/kg, oral, once a day, BALB/c nude mice): 22.53%; tumor growth inhibition (TGI) ([9]; 75 mg/kg, oral, once a day, BALB/c nude mice): 37.73%; tolerability, body weight throughout the study ([9]; 50 and 75 mg/kg, oral, once a day, BALB/c nude mice): well-tolerated, with body weight maintained throughout the study; tumor weight ([9]; 50 and 75 mg/kg, tumors harvested 2 h after last oral administration): reduced with the increased concentration
COc1cc(N2CCC(N3CCN(C)CC3)CC2)ccc1Nc1ncc(Cl)c(Nc2ccccc2P(C)(C)=O)n1 [brigatinib]	400	310 ± 90			610 ± 210		4720 ± 2150		significantly reduced	around 80%	apoptosis rate [21]: around 80%; apoptosis rate [22]: around 80%

— PMC9809337, “Discovery of HCD3514 as a potent EGFR inhibitor against C797S mutation in vitro and in vivo” (Journal of Cancer, 2023)
